Reference: US10464947B2 (Incyte Corporation, priority 2013, dated 2019)

These molecules were tested on KMS.12.BM cells (assay: KMS.12.BM Cell Viability Assay (Example B1)). Settings: Homo sapiens, 72 h, 3 days, Cell Titer-GLO, read-out: KMS cellular IC50.
Format: cell-based, human
Summary of the method: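 KMS.12.BM human myeloma cells, 5000 cells/well in RPMI with 10% FBS, exposed to a compound concentration range for 3 days. Viable cells measured by ATP-based Cell Titer-GLO luminescence after 10 min at room temperature.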
For CNC(=O)C1CCN(c2nc3ccc(-c4c(C)noc4C)c4c3n2[C@@H](c2ccccn2)CO4)CC1 [Example 189, 1-[(4S)-7-(3,5-dimethylisoxazol-4-yl)-4-pyridin-2-yl-4,5-dihydroimidazo[1,5,4-de][1,4]benzoxazin-2-yl]-N-methylpiperidine-4-carboxamide], the IC50 was less than 1 µM. In the case of CC(=O)NC1CCN(c2nc3ccc(-c4c(C)noc4C)c4c3n2[C@@H](c2ccccn2)CO4)CC1 [Example 190, N-{1-[(4S)-7-(3,5-dimethylisoxazol-4-yl)-4-pyridin-2-yl-4,5-dihydroimidazo[1,5,4-de][1,4]benzoxazin-2-yl]piperidin-4-yl}acetamide], the IC50 is reported as less than 1 µM. Cc1noc(C)c1-c1ccc2nc(N3CCN(CC(N)=O)CC3)n3c2c1OC[C@@H]3c1ccccn1 [Example 191, 2-{4-[(4S)-7-(3,5-dimethylisoxazol-4-yl)-4-pyridin-2-yl-4,5-dihydroimidazo[1,5,4-de][1,4]benzoxazin-2-yl]piperazin-1-yl}acetamide] gave an IC50 of less than 1 µM. CCN1CCN(c2nc3ccc(-c4c(C)noc4C)c4c3n2[C@@H](c2ccccn2)CO4)CC1 [Example 192, (4S)-7-(3,5-dimethylisoxazol-4-yl)-2-(4-ethylpiperazin-1-yl)-4-pyridin-2-yl-4,5-dihydroimidazo[1,5,4-de][1,4]benzoxazine] showed an IC50 of less than 1 µM. Cc1noc(C)c1-c1ccc2nc(N3CCN4CCC[C@H]4C3)n3c2c1OC[C@@H]3c1ccccn1 [Example 193A, (4S)-7-(3,5-dimethylisoxazol-4-yl)-2-[(8aS)-hexahydropyrrolo[1,2-a]pyrazin-2(1H)-yl]-4-pyridin-2-yl-4,5-dihydroimidazo[1,5,4-de][1,4]benzoxazine] gave an IC50 of less than 1 µM. Cc1noc(C)c1-c1ccc2nc(N3CCN4CCC[C@@H]4C3)n3c2c1OC[C@@H]3c1ccccn1 [Example 193B, (4S)-7-(3,5-dimethylisoxazol-4-yl)-2-[(8aR)-hexahydropyrrolo[1,2-a]pyrazin-2(1H)-yl]-4-pyridin-2-yl-4,5-dihydroimidazo[1,5,4-de][1,4]benzoxazine] gave an IC50 of less than 1 µM. Cc1noc(C)c1-c1ccc2nc(N3CCC(C)(O)CC3)n3c2c1OC[C@@H]3c1ccccn1 [Example 194, 1-[(4S)-7-(3,5-dimethylisoxazol-4-yl)-4-pyridin-2-yl-4,5-dihydroimidazo[1,5,4-de][1,4]benzoxazin-2-yl]-4-methylpiperidin-4-ol] was tested, and the IC50 was less than 1 µM. With Cc1noc(C)c1-c1ccc2nc(N3CCNC(=O)C3C)n3c2c1OC[C@@H]3c1ccccn1 (stereo partly drawn) [Example 195, 4-[(4S)-7-(3,5-dimethylisoxazol-4-yl)-4-pyridin-2-yl-4,5-dihydroimidazo[1,5,4-de][1,4]benzoxazin-2-yl]-3-methylpiperazin-2-one] the IC50 was less than 1 µM. With Cc1noc(C)c1-c1ccc2nc(N3CC(NC(=O)OC(C)(C)C)C3)n3c2c1OC[C@@H]3c1ccccn1 [Example 196, tert-butyl {1-[(4S)-7-(3,5-dimethylisoxazol-4-yl)-4-pyridin-2-yl-4,5-dihydroimidazo[1,5,4-de][1,4]benzoxazin-2-yl]azetidin-3-yl}carbamate] the IC50 was less than 1 µM. Cc1noc(C)c1-c1ccc2nc(N3CCCN(C(=O)OC(C)(C)C)CC3)n3c2c1OC[C@@H]3c1ccccn1 [Example 197, tert-butyl 4-[(4S)-7-(3,5-dimethylisoxazol-4-yl)-4-pyridin-2-yl-4,5-dihydroimidazo[1,5,4-de][1,4]benzoxazin-2-yl]-1,4-diazepane-1-carboxylate] gave an IC50 of less than 1 µM. CC(=O)N[C@@H]1CCN(c2nc3ccc(-c4c(C)noc4C)c4c3n2[C@@H](c2ccccn2)CO4)C1 [Example 201A, N-{(3R)-1-[(4S)-7-(3,5-dimethylisoxazol-4-yl)-4-pyridin-2-yl-4,5-dihydroimidazo[1,5,4-de][1,4]benzoxazin-2-yl]pyrrolidin-3-yl}acetamide] gave an IC50 of less than 1 µM. CC(=O)N[C@H]1CCN(c2nc3ccc(-c4c(C)noc4C)c4c3n2[C@@H](c2ccccn2)CO4)C1 [Example 201B, N-{(3S)-1-[(4S)-7-(3,5-dimethylisoxazol-4-yl)-4-pyridin-2-yl-4,5-dihydroimidazo[1,5,4-de][1,4]benzoxazin-2-yl]pyrrolidin-3-yl}acetamide] gave an IC50 of less than 1 µM. For Cc1noc(C)c1-c1ccc2nc(N3CC[C@@H](NC(=O)C(F)(F)F)C3)n3c2c1OC[C@@H]3c1ccccn1 [Example 203, N-{(3R)-1-[(4S)-7-(3,5-dimethylisoxazol-4-yl)-4-pyridin-2-yl-4,5-dihydroimidazo[1,5,4-de][1,4]benzoxazin-2-yl]pyrrolidin-3-yl}-2,2,2-trifluoroacetamide], the IC50 was less than 1 µM. COCC(=O)N[C@@H]1CCN(c2nc3ccc(-c4c(C)noc4C)c4c3n2[C@@H](c2ccccn2)CO4)C1 [Example 205, N-{(3R)-1-[(4S)-7-(3,5-dimethylisoxazol-4-yl)-4-pyridin-2-yl-4,5-dihydroimidazo[1,5,4-de][1,4]benzoxazin-2-yl]pyrrolidin-3-yl}-2-methoxyacetamide] gave an IC50 of less than 1 µM. Cc1noc(C)c1-c1ccc2nc(N3CC[C@@H](NC(=O)C4CC4)C3)n3c2c1OC[C@@H]3c1ccccn1 [Example 206, N-{(3R)-1-[(4S)-7-(3,5-dimethylisoxazol-4-yl)-4-pyridin-2-yl-4,5-dihydroimidazo[1,5,4-de][1,4]benzoxazin-2-yl]pyrrolidin-3-yl}cyclopropanecarboxamide] was tested, and the IC50 was less than 1 µM. For Cc1noc(C)c1-c1ccc2nc(N3CC[C@@H](NS(C)(=O)=O)C3)n3c2c1OC[C@@H]3c1ccccn1 [Example 207, N-{(3R)-1-[(4S)-7-(3,5-dimethylisoxazol-4-yl)-4-pyridin-2-yl-4,5-dihydroimidazo[1,5,4-de][1,4]benzoxazin-2-yl]pyrrolidin-3-yl}methanesulfonamide], the IC50 was less than 1 µM. For CCC(=O)N[C@@H]1CCN(c2nc3ccc(-c4c(C)noc4C)c4c3n2[C@@H](c2ccccn2)CO4)C1 [Example 208, N-{(3R)-1-[(4S)-7-(3,5-dimethylisoxazol-4-yl)-4-pyridin-2-yl-4,5-dihydroimidazo[1,5,4-de][1,4]benzoxazin-2-yl]pyrrolidin-3-yl}propanamide], the IC50 was less than 1 µM. In the case of Cc1noc(C)c1-c1ccc2nc(N3CC[C@@H](NC(=O)C(C)C)C3)n3c2c1OC[C@@H]3c1ccccn1 [Example 209, N-{(3R)-1-[(4S)-7-(3,5-dimethylisoxazol-4-yl)-4-pyridin-2-yl-4,5-dihydroimidazo[1,5,4-de][1,4]benzoxazin-2-yl]pyrrolidin-3-yl}-2-methylpropanamide], the IC50 is reported as less than 1 µM. In the case of Cc1noc(C)c1-c1ccc2nc(N3CC[C@@H](NC(=O)C4CCC4)C3)n3c2c1OC[C@@H]3c1ccccn1 [Example 210, N-{(3R)-1-[(4S)-7-(3,5-dimethylisoxazol-4-yl)-4-pyridin-2-yl-4,5-dihydroimidazo[1,5,4-de][1,4]benzoxazin-2-yl]pyrrolidin-3-yl}cyclobutanecarboxamide], the IC50 is reported as less than 1 µM. Molecule Cc1noc(C)c1-c1ccc2nc(N3CC[C@@H](NC(=O)CC#N)C3)n3c2c1OC[C@@H]3c1ccccn1 [Example 211, 2-cyano-N-{(3R)-1-[(4S)-7-(3,5-dimethylisoxazol-4-yl)-4-pyridin-2-yl-4,5-dihydroimidazo[1,5,4-de][1,4]benzoxazin-2-yl]pyrrolidin-3-yl}acetamide] has an IC50 of less than 1 µM. Work on Cc1noc(C)c1-c1ccc2nc(N3CC[C@@H](NC(=O)C4CCOCC4)C3)n3c2c1OC[C@@H]3c1ccccn1 [Example 213, N-{(3R)-1-[(4S)-7-(3,5-dimethylisoxazol-4-yl)-4-pyridin-2-yl-4,5-dihydroimidazo[1,5,4-de][1,4]benzoxazin-2-yl]pyrrolidin-3-yl}tetrahydro-2H-pyran-4-carboxamide] yielded an IC50 of less than 1 µM. CCS(=O)(=O)N[C@@H]1CCN(c2nc3ccc(-c4c(C)noc4C)c4c3n2[C@@H](c2ccccn2)CO4)C1 [Example 214, N-{(3R)-1-[(4S)-7-(3,5-dimethylisoxazol-4-yl)-4-pyridin-2-yl-4,5-dihydroimidazo[1,5,4-de][1,4]benzoxazin-2-yl]pyrrolidin-3-yl}ethanesulfonamide] gave an IC50 of less than 1 µM. Molecule CCCS(=O)(=O)N[C@@H]1CCN(c2nc3ccc(-c4c(C)noc4C)c4c3n2[C@@H](c2ccccn2)CO4)C1 [Example 215, N-{(3R)-1-[(4S)-7-(3,5-dimethylisoxazol-4-yl)-4-pyridin-2-yl-4,5-dihydroimidazo[1,5,4-de][1,4]benzoxazin-2-yl]pyrrolidin-3-yl}propane-1-sulfonamide] has an IC50 of less than 1 µM. Work on Cc1noc(C)c1-c1ccc2nc(N3CC[C@@H](NS(=O)(=O)C(C)C)C3)n3c2c1OC[C@@H]3c1ccccn1 [Example 217, N-{(3R)-1-[(4S)-7-(3,5-dimethylisoxazol-4-yl)-4-pyridin-2-yl-4,5-dihydroimidazo[1,5,4-de][1,4]benzoxazin-2-yl]pyrrolidin-3-yl}propane-2-sulfonamide] yielded an IC50 of less than 1 µM. For Cc1noc(C)c1-c1ccc2nc(N3CC[C@@H](NS(=O)(=O)C4CC4)C3)n3c2c1OC[C@@H]3c1ccccn1 [Example 218, N-{(3R)-1-[(4S)-7-(3,5-dimethylisoxazol-4-yl)-4-pyridin-2-yl-4,5-dihydroimidazo[1,5,4-de][1,4]benzoxazin-2-yl]pyrrolidin-3-yl}cyclopropanesulfonamide], the IC50 was less than 1 µM. Cc1noc(C)c1-c1ccc2nc(N3CC[C@@H](N(C)S(C)(=O)=O)C3)n3c2c1OC[C@@H]3c1ccccn1 [Example 220, N-{(3R)-1-[(4S)-7-(3,5-dimethylisoxazol-4-yl)-4-pyridin-2-yl-4,5-dihydroimidazo[1,5,4-de][1,4]benzoxazin-2-yl]pyrrolidin-3-yl}-N-methylmethanesulfonamide] was tested, and the IC50 was less than 1 µM. COCC(=O)N(C)[C@@H]1CCN(c2nc3ccc(-c4c(C)noc4C)c4c3n2[C@@H](c2ccccn2)CO4)C1 [Example 221, N-{(3R)-1-[(4S)-7-(3,5-dimethylisoxazol-4-yl)-4-pyridin-2-yl-4,5-dihydroimidazo[1,5,4-de][1,4]benzoxazin-2-yl]pyrrolidin-3-yl}-2-methoxy-N-methylacetamide] was tested, and the IC50 was less than 1 µM.
